Test results: patent US11260049B2, “TRPV4 antagonists” (GlaxoSmithKline Intellectual Property (No. 2) Limited, priority 2016, dated 2022)

Molecular target: human TRPV4 (Homo sapiens (Human), UniProt Q9HBA0)
Experiment: FLIPR assay for hTRPV4 expressed in BHK cells
Type: cell-based
Conditions: inhibition of Agonist Compound (EC80)-induced calcium signal; BHK/AC9 cells expressing human TRPV4; read-out: IC50
Method in brief: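 BHK/AC9 cells transduced with BacMam human TRPV4 (MOI 78), 15,000 cells/well, cultured 24 h at 37 °C. Loaded with 2 μM Fluo-4 AM and 500 μM Brilliant Black in HBSS for 1–1.5 h at room temperature in the dark. Intracellular calcium influx monitored by fluorescence.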

human TRPV4, sequence (Q9HBA0 whole entry): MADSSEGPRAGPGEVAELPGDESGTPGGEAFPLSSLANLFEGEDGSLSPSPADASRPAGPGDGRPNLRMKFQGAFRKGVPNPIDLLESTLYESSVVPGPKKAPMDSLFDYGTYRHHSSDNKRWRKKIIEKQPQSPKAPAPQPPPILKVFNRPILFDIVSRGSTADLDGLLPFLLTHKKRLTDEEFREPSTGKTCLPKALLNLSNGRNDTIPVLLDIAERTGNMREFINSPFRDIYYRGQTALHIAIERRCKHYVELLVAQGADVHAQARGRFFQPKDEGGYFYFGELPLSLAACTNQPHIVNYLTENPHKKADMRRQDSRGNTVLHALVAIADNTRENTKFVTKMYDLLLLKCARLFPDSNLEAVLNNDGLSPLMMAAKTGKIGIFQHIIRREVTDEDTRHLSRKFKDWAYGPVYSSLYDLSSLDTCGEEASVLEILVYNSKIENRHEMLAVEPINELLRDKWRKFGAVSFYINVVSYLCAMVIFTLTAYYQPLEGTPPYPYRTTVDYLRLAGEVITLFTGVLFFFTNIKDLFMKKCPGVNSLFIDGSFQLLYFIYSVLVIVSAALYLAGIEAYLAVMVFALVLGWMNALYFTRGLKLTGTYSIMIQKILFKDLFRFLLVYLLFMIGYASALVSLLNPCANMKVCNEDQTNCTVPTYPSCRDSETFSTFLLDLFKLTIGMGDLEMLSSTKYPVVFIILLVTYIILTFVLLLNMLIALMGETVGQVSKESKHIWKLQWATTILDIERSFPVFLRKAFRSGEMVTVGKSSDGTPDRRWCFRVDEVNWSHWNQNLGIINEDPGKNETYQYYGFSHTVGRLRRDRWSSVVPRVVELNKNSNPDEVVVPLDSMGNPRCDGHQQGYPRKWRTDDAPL

O=S(=O)(c1ccc(C(F)(F)F)cc1)[C@H]1CN(S(=O)(=O)c2ccc(C(F)(F)F)cc2Cl)C[C@@]1(O)CO [Example 96, (3R,4S)-1-((2-chloro-4-(trifluoromethyl)phenyl)sulfonyl)-3-(hydroxymethyl)-4-((4-(trifluoromethyl)phenyl)sulfonyl)pyrrolidin-3-ol]
IC50: 10 to 100 nM

O=S(=O)(c1ccc(Cl)cc1)[C@H]1CN(S(=O)(=O)c2ccc(C(F)(F)F)cc2Cl)C[C@@]1(O)CO [Example 97, (3R,4S)-1-((2-chloro-4-(trifluoromethyl)phenyl)sulfonyl)-4-((4-chlorophenyl)sulfonyl)-3-(hydroxymethyl)pyrrolidin-3-ol]
IC50: 10 to 100 nM

O=S(=O)(c1ccc(Cl)c(F)c1)[C@H]1CN(S(=O)(=O)c2ccc(C(F)(F)F)cc2Cl)C[C@@]1(O)CO [Example 98, (3R,4S)-4-((4-chloro-3-fluorophenyl)sulfonyl)-1-((2-chloro-4-(trifluoromethyl)phenyl)sulfonyl)-3-(hydroxymethyl)pyrrolidin-3-ol]
IC50: 10 to 100 nM

O=S(=O)(c1ccc(Cl)nc1)[C@H]1CN(S(=O)(=O)c2ccc(C(F)(F)F)cc2Cl)C[C@@]1(O)CO [Example 99, (3R,4S)-1-((2-chloro-4-(trifluoromethyl)phenyl)sulfonyl)-4-((6-chloropyridin-3-yl)sulfonyl)-3-(hydroxymethyl)pyrrolidin-3-ol]
IC50: 10 to 100 nM

Cc1cc(S(=O)(=O)[C@H]2CN(S(=O)(=O)c3ccc(C(F)(F)F)cc3Cl)C[C@@]2(O)CO)ccc1C#N [Example 100, 4-(((3S,4R)-1-((2-chloro-4-(trifluoromethyl)phenyl)sulfonyl)-4-hydroxy-4-(hydroxymethyl)pyrrolidin-3-yl)sulfonyl)-2-methylbenzonitrile]
IC50: 10 to 100 nM

N#Cc1ccc(S(=O)(=O)[C@H]2CN(S(=O)(=O)c3ccc(C(F)(F)F)cc3Cl)C[C@@]2(O)CO)cc1Cl [Example 101, 2-chloro-4-(((3S,4R)-1-((2-chloro-4-(trifluoromethyl)phenyl)sulfonyl)-4-hydroxy-4-(hydroxymethyl)pyrrolidin-3-yl)sulfonyl)benzonitrile]
IC50: 10 to 100 nM

O=S(=O)(c1ccc(F)cc1)[C@H]1CN(S(=O)(=O)c2ccc(Cl)cc2Cl)C[C@@]1(O)CO [Example 102, (3R,4S)-1-((2,4-dichlorophenyl)sulfonyl)-4-((4-fluorophenyl)sulfonyl)-3-(hydroxymethyl)pyrrolidin-3-ol]
IC50: 10 to 100 nM

N#Cc1cc(S(=O)(=O)[C@H]2CN(S(=O)(=O)c3ccc(Cl)cc3Cl)C[C@@]2(O)CO)ccc1Cl [Example 103, 2-chloro-5-(((3S,4R)-1-((2,4-dichlorophenyl)sulfonyl)-4-hydroxy-4-(hydroxymethyl)pyrrolidin-3-yl)sulfonyl)benzonitrile]
IC50: 10 to 100 nM

CCc1ccc(S(=O)(=O)[C@H]2CN(S(=O)(=O)c3ccc(C#N)cc3Cl)C[C@@]2(O)CO)cc1 [Example 104, 3-chloro-4-(((3R,4S)-4-((4-ethylphenyl)sulfonyl)-3-hydroxy-3-(hydroxymethyl)pyrrolidin-1-yl)sulfonyl)benzonitrile]
IC50: 10 to 100 nM

CC(C)c1ccc(S(=O)(=O)[C@H]2CN(S(=O)(=O)c3ccc(C#N)cc3Cl)C[C@@]2(O)CO)cc1 [Example 105, 3-chloro-4-(((3R,4S)-3-hydroxy-3-(hydroxymethyl)-4-((4-isopropylphenyl)sulfonyl)pyrrolidin-1-yl)sulfonyl)benzonitrile]
IC50: 10 to 100 nM

CCCc1ccc(S(=O)(=O)[C@H]2CN(S(=O)(=O)c3ccc(C#N)cc3Cl)C[C@@]2(O)CO)cc1 [Example 106, 3-chloro-4-(((3R,4S)-3-hydroxy-3-(hydroxymethyl)-4-((4-propylphenyl)sulfonyl)pyrrolidin-1-yl)sulfonyl)benzonitrile]
IC50: 10 to 100 nM

N#Cc1ccc(S(=O)(=O)N2C[C@H](S(=O)(=O)c3ccc(Cl)c(F)c3)[C@](O)(CO)C2)c(Cl)c1 [Example 107, 3-chloro-4-(((3R,4S)-4-((4-chloro-3-fluorophenyl)sulfonyl)-3-hydroxy-3-(hydroxymethyl)pyrrolidin-1-yl)sulfonyl)benzonitrile]
IC50: 0.1 to 10 nM

O=S(=O)(c1cnc(C(F)(F)F)nc1)[C@H]1CN(S(=O)(=O)c2ccc(Cl)cc2Cl)C[C@@]1(O)CO [Example 108, (3R,4S)-1-((2,4-dichlorophenyl)sulfonyl)-3-(hydroxymethyl)-4-((2-(trifluoromethyl)pyrimidin-5-yl)sulfonyl)pyrrolidin-3-ol]
IC50: 10 to 100 nM

N#Cc1ccc(S(=O)(=O)N2C[C@H](S(=O)(=O)c3ccc(Cl)cn3)[C@@](O)(CO)C2)c(Cl)c1 [Example 109, 3-chloro-4-(((3S,4S)-4-((5-chloropyridin-2-yl)sulfonyl)-3-hydroxy-3-(hydroxymethyl)pyrrolidin-1-yl)sulfonyl)benzonitrile]
IC50: 10 to 100 nM

N#Cc1ccc(S(=O)(=O)N2C[C@H](S(=O)(=O)c3ccc(C(F)(F)F)cn3)[C@](O)(CO)C2)c(Cl)c1 [Example 110, 3-chloro-4-(((3R,4S)-3-hydroxy-3-(hydroxymethyl)-4-((5-(trifluoromethyl)pyridin-2-yl)sulfonyl)pyrrolidin-1-yl)sulfonyl)benzonitrile]
IC50: 10 to 100 nM

N#Cc1ncccc1S(=O)(=O)N1C[C@H](S(=O)(=O)c2ccc(Cl)cc2)[C@](O)(CO)C1 [Example 111, 3-(((3R,4S)-4-((4-chlorophenyl)sulfonyl)-3-hydroxy-3-(hydroxymethyl)pyrrolidin-1-yl)sulfonyl)picolinonitrile]
IC50: 10 to 100 nM

N#Cc1ccc(S(=O)(=O)N2C[C@H](S(=O)(=O)c3cnc(C(F)(F)F)nc3)[C@](O)(CO)C2)c(Cl)c1 [Example 112, 3-chloro-4-(((3R,4S)-3-hydroxy-3-(hydroxymethyl)-4-((2-(trifluoromethyl)pyrimidin-5-yl)sulfonyl)pyrrolidin-1-yl)sulfonyl)benzonitrile]
IC50: 10 to 100 nM

N#Cc1ccc(S(=O)(=O)N2C[C@H](S(=O)(=O)c3ccc(Br)cn3)[C@](O)(CO)C2)c(Cl)c1 [Example 113, 4-(((3R,4S)-4-((5-bromopyridin-2-yl)sulfonyl)-3-hydroxy-3-(hydroxymethyl)pyrrolidin-1-yl)sulfonyl)-3-chlorobenzonitrile]
IC50: 0.1 to 10 nM

O=S(=O)(c1ccc(Cl)c(Cl)c1)[C@H]1CN(S(=O)(=O)c2ccc(Cl)cc2Cl)C[C@@]1(O)CO [Example 114, (3R,4S)-1-((2,4-dichlorophenyl)sulfonyl)-4-((3,4-dichlorophenyl)sulfonyl)-3-(hydroxymethyl)pyrrolidin-3-ol]
IC50: 10 to 100 nM

O=S(=O)(c1ccc(Cl)c(Cl)c1)[C@H]1CN(S(=O)(=O)c2ccc(Cl)cc2Cl)C[C@]1(O)CO [Example 115, (3S,4S)-1-((2,4-dichlorophenyl)sulfonyl)-4-((3,4-dichlorophenyl)sulfonyl)-3-(hydroxymethyl)pyrrolidin-3-ol]
IC50: 10 to 100 nM

O=S(=O)(c1ccc(C(F)(F)F)cn1)[C@H]1CN(S(=O)(=O)c2ccc(Cl)cc2Cl)C[C@@]1(O)CO [Example 116, (3R,4S)-1-((2,4-dichlorophenyl)sulfonyl)-3-(hydroxymethyl)-4-((5-(trifluoromethyl)pyridin-2-yl)sulfonyl)pyrrolidin-3-ol]
IC50: 10 to 100 nM

N#Cc1cc(C(F)(F)F)ccc1S(=O)(=O)N1C[C@H](S(=O)(=O)c2ccc(Cl)cc2)[C@](O)(CO)C1 [Example 117, 2-(((3R,4S)-4-((4-chlorophenyl)sulfonyl)-3-hydroxy-3-(hydroxymethyl)pyrrolidin-1-yl)sulfonyl)-5-(trifluoromethyl)benzonitrile]
IC50: 0.1 to 10 nM

O=S(=O)(c1ccc(C(F)(F)F)nc1)[C@H]1CN(S(=O)(=O)c2ccc(Cl)cc2Cl)C[C@@]1(O)CO [Example 118, (3R,4S)-1-((2,4-dichlorophenyl)sulfonyl)-3-(hydroxymethyl)-4-((6-(trifluoromethyl)pyridin-3-yl)sulfonyl)pyrrolidin-3-ol]
IC50: 10 to 100 nM

C[C@H](O)[C@]1(O)CN(S(=O)(=O)c2ccc(C#N)cc2Cl)C[C@@H]1S(=O)(=O)c1ccc(Cl)cn1 [Example 119, 3-chloro-4-(((3R,4S)-4-((5-chloropyridin-2-yl)sulfonyl)-3-hydroxy-3-((S)-1-hydroxyethyl)pyrrolidin-1-yl)sulfonyl)benzonitrile]
IC50: 0.1 to 10 nM

C[C@@H](O)[C@]1(O)CN(S(=O)(=O)c2ccc(C#N)cc2Cl)C[C@@H]1S(=O)(=O)c1ccc(Cl)cn1 [Example 120, 3-chloro-4-(((3R,4S)-4-((5-chloropyridin-2-yl)sulfonyl)-3-hydroxy-3-((R)-1-hydroxyethyl)pyrrolidin-1-yl)sulfonyl)benzonitrile]
IC50: 0.1 to 10 nM

N#Cc1ccc(S(=O)(=O)N2C[C@H](S(=O)(=O)c3ccc(Cl)cn3)[C@](O)(CN)C2)c(Cl)c1 [Example 121, 4-(((3S,4S)-3-(aminomethyl)-4-((5-chloropyridin-2-yl)sulfonyl)-3-hydroxypyrrolidin-1-yl)sulfonyl)-3-chlorobenzonitrile]
IC50: 0.1 to 10 nM

CNC[C@]1(O)CN(S(=O)(=O)c2ccc(C#N)cc2Cl)C[C@@H]1S(=O)(=O)c1ccc(Cl)cc1 [Example 124, 3-chloro-4-(((3S,4S)-4-((4-chlorophenyl)sulfonyl)-3-hydroxy-3-((methylamino)methyl)pyrrolidin-1-yl)sulfonyl)benzonitrile]
IC50: 0.1 to 10 nM

N#Cc1ccc(S(=O)(=O)N2C[C@H](S(=O)(=O)c3ccc(Cl)cn3)[C@@](O)(CN)C2)c(Cl)c1 [Example 125, 4-(((3R,4S)-3-(aminomethyl)-4-((5-chloropyridin-2-yl)sulfonyl)-3-hydroxypyrrolidin-1-yl)sulfonyl)-3-chlorobenzonitrile]
IC50: 0.1 to 10 nM

N#Cc1ccc(S(=O)(=O)N2C[C@H](S(=O)(=O)c3ccc(Cl)cc3)[C@](O)(CN)C2)cc1 [Example 126, 4-(((3S,4S)-3-(aminomethyl)-4-((4-chlorophenyl)sulfonyl)-3-hydroxypyrrolidin-1-yl)sulfonyl)benzonitrile]
IC50: 10 to 100 nM
